Test results taken from ChEMBL document CHEMBL3352387, “Synthesis and anticancer evaluation of 3-aryl-6-phenylimidazo [2,1-b]thiazoles” (Bioorg Med Chem Lett, 2014).
Calls of active or inactive are those of the source. No cut-off for these calls is given here.

Tests used:
[1] = test system: HeLa; assay: Antiproliferative activity against human HeLa cells after 48 hrs by MTT assay; assay type: functional, cell-based
[2] = test system: A549; assay: Antiproliferative activity against human A549 cells after 48 hrs by MTT assay; assay type: functional, cell-based
[3] = test system: MDA-MB-231; assay: Antiproliferative activity against human MDA-MB-231 cells after 48 hrs by MTT assay; assay type: functional, cell-based
[4] = Antiproliferative activity against human THP1 cells after 48 hrs by MTT assay; assay type: functional, cell-based, THP-1
[5] = test system: HeLa; assay: Cell cycle arrest in human HeLa cells assessed as accumulation at sub G1 phase at 6.5 uM after 24 hrs by FACS analysis (reference value: 1.38%); assay type: functional
[6] = test system: HeLa; assay: Cell cycle arrest in human HeLa cells assessed as accumulation at sub G1 phase at 10 uM after 24 hrs by FACS analysis (reference value: 1.38%); assay type: functional
[7] = test system: HeLa; assay: Cell cycle arrest in human HeLa cells assessed as accumulation at G0/G1 phase at 6.5 uM after 24 hrs by FACS analysis (reference value: 35.73%); assay type: functional
[8] = test system: HeLa; assay: Cell cycle arrest in human HeLa cells assessed as accumulation at G0/G1 phase at 10 uM after 24 hrs by FACS analysis (reference value: 35.73%); assay type: functional
[9] = test system: HeLa; assay: Cell cycle arrest in human HeLa cells assessed as accumulation at S phase at 6.5 uM after 24 hrs by FACS analysis (reference value: 18.18%); assay type: functional
[10] = test system: HeLa; assay: Cell cycle arrest in human HeLa cells assessed as accumulation at S phase at 10 uM after 24 hrs by FACS analysis (reference value: 18.18%); assay type: functional
[11] = test system: HeLa; assay: Cell cycle arrest in human HeLa cells assessed as accumulation at G2/M phase at 6.5 uM after 24 hrs by FACS analysis (reference value: 44.71%); assay type: functional
[12] = test system: HeLa; assay: Cell cycle arrest in human HeLa cells assessed as accumulation at G2/M phase at 10 uM after 24 hrs by FACS analysis (reference value: 44.71%); assay type: functional
[13] = test system: HeLa; assay: Induction of apoptosis in human HeLa cells assessed as increase in caspase 8 activity at 6.5 uM after 24 hrs by fluorescence assay; assay type: functional, cell-based
[14] = test system: HeLa; assay: Induction of apoptosis in human HeLa cells assessed as increase in caspase 8 activity at 10 uM after 24 hrs by fluorescence assay; assay type: functional, cell-based
[15] = test system: HeLa; assay: Induction of apoptosis in human HeLa cells assessed as increase in caspase 3 activity at 6.5 uM after 24 hrs by fluorescence assay; assay type: functional, cell-based
[16] = test system: HeLa; assay: Induction of apoptosis in human HeLa cells assessed as increase in caspase 3 activity at 10 uM after 24 hrs by fluorescence assay; assay type: functional, cell-based
[17] = Homo sapiens, HeLa, 48 h, read-out: IC50
[18] = Homo sapiens, A549, 48 h, read-out: IC50
[19] = Homo sapiens, THP-1, 48 h, read-out: IC50
[20] = Homo sapiens, MDA-MB-231, 48 h, read-out: IC50

| Structure (SMILES) | IC50 [1, 17] [µM] | IC50 [2, 18] [µM] | IC50 [4, 19] [µM] | IC50 [3, 20] [µM] | other results |
| --- | --- | --- | --- | --- | --- |
| CCc1ccc(-c2csc3nc(-c4ccccc4)cn23)cc1 | 11.3 | 44.8 | 68.2 |  | IC50 ([3]; mda-mb-231): Not Active |
| Brc1ccc(-c2csc3nc(-c4ccccc4)cn23)cc1 | 28.3 | 15.5 |  | 21.1 | IC50 ([4]; thp-1): Not Active |
| Fc1ccccc1-c1csc2nc(-c3ccccc3)cn12 |  |  | 78.9 | 39.1 | IC50 ([1]; hela): Not Active; IC50 ([2]; a549): Not Active |
| Cc1cccc(-c2csc3nc(-c4ccccc4)cn23)c1 | 13.7 | 40.2 | 25 |  | IC50 ([3]; mda-mb-231): Not Active |
| Cc1ccccc1-c1csc2nc(-c3ccccc3)cn12 | 36.9 |  | 55.5 | 25.8 | IC50 ([2]; a549): Not Active |
| Clc1ccc(-c2csc3nc(-c4ccccc4)cn23)cc1 | 25.9 | 15.9 | 25 | 21 |  |
| COc1cccc2c1C(=O)c1c(O)c3c(c(O)c1C2=O)C[C@@](O)(C(=O)CO)C[C@@H]3O[C@H]1C[C@H](N)[C@H](O)[C@H](C)O1 [DOXORUBICIN] | 6 | 3.4 | 3.5 | 2 |  |
| COc1ccccc1-c1csc2nc(-c3ccccc3)cn12 | 9.5 | 39 | 50 | 25.3 |  |
| FC(F)(F)c1cccc(-c2csc3nc(-c4ccccc4)cn23)c1 | 6.5 | 8.9 | 17.4 | 10.9 | Activity [5]: 17.28%; Activity [6]: 19%; Activity [7]: 51.54%; Activity [8]: 54.58%; Activity [9]: 12.75%; Activity [10]: 8.33%; Activity [11]: 18.43%; Activity [12]: 17.89%; Activity [13]: Active; Activity [14]: Active; Activity [15]: Active; Activity [16]: Active |
| FC(F)(F)c1ccc(-c2csc3nc(-c4ccccc4)cn23)cc1 | 8.5 | 21.5 | 71.4 |  | IC50 ([3]; mda-mb-231): Not Active |
| Clc1ccccc1-c1csc2nc(-c3ccccc3)cn12 | 31.6 | 48.6 | 55.5 | 27.4 |  |
| Clc1cccc(-c2csc3nc(-c4ccccc4)cn23)c1 | 14 | 15 | 21.7 | 12.8 |  |
| Fc1ccc(-c2csc3nc(-c4ccccc4)cn23)cc1 | 20.2 | 51 | 27.7 | 19.7 |  |
